This is an account of results in paper PMC12635268, “Novel antimicrobial peptides and peptide-microbiome crosstalk in Appalachian salamander skin” (NPJ Biofilms and Microbiomes, 2025).

≈ marks a conversion by molar mass, not a printed value. Read-outs that look alike come from different tables or passages of the source.

On the set-up of series [1]: method as in Biomatik (vendor). As to conditions: 1.0 mg peptide in 1.0 ml solvent; peptides synthesized by Biomatik; ref Biomatik (vendor); cited from earlier work.
The subject of series [2] is Batrachochytrium dendrobatidis Bd-GPL strain JEL404. As to conditions: slope of growth, positive = inhibition, negative = no inhibition.
For series [3], the system named is A. baumannii 5075.
Series [4] concerns K. pneumoniae 4640. To be noted: K. pneumoniae 4640.
The test system of the next series is HepG2 (ATCC HB-8065). As to the kind of experiment: HepG2 cytotoxicity, MTT assay. Format: cell-based, human. As to conditions: at concentrations up to 5.25 μg/mL (5.25 to 0.15 µg/mL), 48 h. The protocol:
For any inhibitory peptides, HepG2 (ATCC HB-8065) cytotoxicity was tested to determine half-maximal inhibitory concentration (IC50) of human cells. The procedure involved seeding 96-well plates with 2.5 × 10^4 cells per well in 170 µL of culture medium, followed by an overnight incubation at 37 °C in a 5% CO₂ atmosphere. Subsequently, cells were exposed to varying concentrations of the test peptides, ranging from 5.25 µg/mL to 0.15 µg/mL, and incubated for an additional 48 h. Cell viability was assessed using the MTT assay, as previously described. Absorbance measurements were obtained using a PerkinElmer EnSight plate reader. The IC50 values for each compound were calculated by fitting the data to a sigmoidal dose-response curve with variable slope using GraphPad Prism software. Each assay plate included three controls: (a) background control—wells without cells and without drug; (b) positive control—wells with cells and 10 µg/mL of a known toxic compound; and (c) DMSO control—wells with cells and 0.2% DMSO, the highest concentration of DMSO used in the assay, which is non-toxic to the cells.
(In general: Tetrazolium assays rely on reduction of a dye to a coloured formazan, in cell work by metabolically active cells.)

Series [5] relates to A. baumannii 5075. Description: microbe, parasite or virus in culture.
The test system of series [6] is K. pneumoniae 4640. As to the kind of experiment: microbe, parasite or virus in culture.
In the next series the test system is A. baumannii ATCC 17978. As to the kind of experiment: microbe, parasite or virus in culture. As to conditions: for Bacterial MIC: A. baumannii 17978; for MIC: Acinetobacter baumannii. An outline of the steps:
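Peptides tested 0.25–128 μg/mL (2-fold dilutions, TFA/BSA carrier) against 1 × 10⁵ CFU/mL inoculum in CAMHB, duplicates.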

Where [7] appears, read: CAMHB, 1 × 10⁵ CFU/mL, 0.25 to 128 μg/mL, 37 °C 20 h, duplicate, read visually (CLSI).

For the molecule `CC[C@H](C)[C@H](NC(=O)[C@H](CCCCN)NC(=O)[C@H](CCC(=O)O)NC(=O)[C@H](CCCCN)NC(=O)[C@H](CO)NC(=O)[C@H](CCCCN)NC(=O)[C@H](CCCNC(=N)N)NC(=O)[C@H](Cc1ccccc1)NC(=O)[C@H](Cc1ccccc1)NC(=O)[C@H](CC(=O)O)NC(=O)CNC(=O)[C@H](CC(C)C)NC(=O)[C@@H](N)CC(C)C)C(=O)NCC(=O)N[C@@H](CCCCN)C(=O)N[C@@H](CCC(=O)O)C(=O)N[C@@H](Cc1ccccc1)C(=O)N[C@@H](CCCCN)C(=O)N[C@@H](CCCNC(=N)N)C(=O)N[C@H](C(=O)N[C@H](C(=O)N[C@@H](CCC(N)=O)C(=O)N[C@@H](CCCNC(=N)N)C(=O)N[C@H](C(=O)N[C@@H](CCCCN)C(=O)N[C@@H](CC(=O)O)C(=O)N[C@@H](Cc1ccccc1)C(=O)N[C@@H](CC(C)C)C(=O)N[C@@H](CCCNC(=N)N)C(=O)N[C@@H](CC(N)=O)C(=O)N[C@@H](CC(C)C)C(=O)N[C@H](C(=O)N1CCC[C@H]1C(=O)N[C@@H](CCCNC(=N)N)C(=O)N[C@H](C(=O)N[C@@H](CCC(=O)O)C(=O)N[C@@H](CO)C(=O)O)[C@@H](C)O)C(C)C)[C@@H](C)CC)C(C)C)[C@@H](C)CC` [LL-37, reference compound], the “Suggest solvent (solubility)” value in series [1] is recorded as 1.0mg peptide soluble in 1.0ml (H2O:Acetonitrile=3:1). For the same molecule, the “Bd inhibition score (percent inhibition), mean” value in series [2] (synthesized peptide 15.625 μg/mL) is -44.2834%; in series [2] (synthesized peptide 31.25 μg/mL), -68.3967%; in series [2] (synthesized peptide 62.5 μg/mL), -39.8112%; in series [2] (synthesized peptide 125 μg/mL) it was -55.6571%; in series [2] (synthesized peptide 250 μg/mL), -81.8611%; in series [2] (synthesized peptide 500 μg/mL) it was -318.384%. In addition, the MIC against A. baumannii 5075 [3] (setting [7]) was found to be 4 µg/mL (≈ 0.89 µM); with K. pneumoniae 4640 [4] (setting [7]) it was 64 µg/mL (≈ 14.2 µM). Also, the “Bacterial MIC” value stood at 4 µg/mL with A. baumannii 5075 [3] (Week 1 (12/6/2023)), 4 µg/mL in the series on A. baumannii 5075 [3] (Week 2 (12/14/2023)), 64 µg/mL in the series with K. pneumoniae 4640 [4] (Week 1 (12/6/2023)) and 64 µg/mL in the series with K. pneumoniae 4640 [4] (Week 2 (12/14/2023)). Moreover, the “HepG2 cytotoxicity in words” value in the series on HepG2 (ATCC HB-8065) is given as “No HepG2 cytotox was observed”.

Regarding `C[C@H]1COc2c(N3CCN(C)CC3)c(F)cc3c(=O)c(C(=O)O)cn1c23` [Levofloxacin, reference compound], the MIC in the series on A. baumannii 5075 [5] (Acinetobacter baumannii, 5075, 20 h, A. baumannii 5075, CAMHB, 1 × 10⁵ CFU/mL, 0.25 to 128 μg/mL, 37 °C 20 h, duplicate, read visually (CLSI)) is 4 µg/mL (≈ 11.1 µM); in the series with A. baumannii 5075 [5] (Acinetobacter baumannii, 5075, read-out: Bacterial MIC, A. baumannii 5075, Historical run 15NOV23), 8 µg/mL (≈ 22.1 µM); in the series with A. baumannii 5075 [5] (Acinetobacter baumannii, 5075, read-out: Bacterial MIC, A. baumannii 5075, Historical run 19APRIL23), 4 µg/mL (≈ 11.1 µM); in the series with A. baumannii 5075 [5] (Acinetobacter baumannii, 5075, read-out: Bacterial MIC, A. baumannii 5075, Historical run 22NOV23), 4 µg/mL (≈ 11.1 µM); in the series with A. baumannii 5075 [5] (Acinetobacter baumannii, 5075, read-out: Bacterial MIC, A. baumannii 5075, Week 1 (12/6/2023)), 4 µg/mL (≈ 11.1 µM); in the series on A. baumannii 5075 [5] (Acinetobacter baumannii, 5075, read-out: Bacterial MIC, A. baumannii 5075, Week 2 (12/14/2023)), 4 µg/mL (≈ 11.1 µM). Besides, the MIC is 32 µg/mL (≈ 88.6 µM) against K. pneumoniae 4640 [6] (Klebsiella pneumoniae, 4640, 20 h, K. pneumoniae 4640, CAMHB, 1 × 10⁵ CFU/mL, 0.25 to 128 μg/mL, 37 °C 20 h, duplicate, read visually (CLSI)); 32 to 64 µg/mL (≈ 88.6 to 177 µM) with K. pneumoniae 4640 [6] (Klebsiella pneumoniae, 4640, read-out: Bacterial MIC, K. pneumoniae 4640, Historical run 15NOV23); 64 µg/mL (≈ 177 µM) in the series with K. pneumoniae 4640 [6] (Klebsiella pneumoniae, 4640, read-out: Bacterial MIC, K. pneumoniae 4640, Historical run 19APRIL23); 32 µg/mL (≈ 88.6 µM) in the series on K. pneumoniae 4640 [6] (Klebsiella pneumoniae, 4640, read-out: Bacterial MIC, K. pneumoniae 4640, Historical run 22NOV23); 32 µg/mL (≈ 88.6 µM) with K. pneumoniae 4640 [6] (Klebsiella pneumoniae, 4640, read-out: Bacterial MIC, K. pneumoniae 4640, Week 1 (12/6/2023)); 32 µg/mL (≈ 88.6 µM) in the series with K. pneumoniae 4640 [6] (Klebsiella pneumoniae, 4640, read-out: Bacterial MIC, K. pneumoniae 4640, Week 2 (12/14/2023)). In addition, the MIC against A. baumannii ATCC 17978 (ATCC17978, 20 h) is 0.25 µg/mL (≈ 0.692 µM); in the series with A. baumannii ATCC 17978 (ATCC17978, read-out: Bacterial MIC) it was at most 0.25 µg/mL. For the same molecule, the “Bacterial MIC” value with A. baumannii ATCC 17978 (Historical run 15NOV23), with A. baumannii ATCC 17978 (Historical run 19APRIL23), in the series with A. baumannii ATCC 17978 (Historical run 22NOV23) and in the series on A. baumannii ATCC 17978 (Week 2 (12/14/2023)) was “<= 0.250 µg/mL” throughout.
